In patent publication US20230293526A1, “METHOD FOR TREATING CANCER WITH A REVERSE TRANSCRIPTASE INHIBITOR” (PrimeFour Therapeutics, Inc., priority 2020, published 2023):

Test system: cancer cell lines
Assay: Cancer cell proliferation activity of representative nucleosides, CellTiterGlo 72 h (Example 7, Tables 8 and 9)
Format: cell-based
Experimental: Dose response relationships on cell proliferation was assessed for representative nucleosides on cancer cell lines. Briefly, compound treatment of cells started one day after seeding with a final DMSO concentration of 0.1%, and was performed by nanodrop-dispensing using a Tecan Dispenser. 0.1% DMSO (solvent) and Staurosporine (10 μM) served as high control (100% viability) and low control (0% viability), respectively. Cells were cultured in the appropriate media. For the assays, cells were seeded in white cell culture-treated flat and clear bottom multiwell plates and incubated at 37° C. overnight before compound was added. After incubation for 72 h at 37° C. at 5% or 10% CO2 dependent on the medium, cell plates were equilibrated to room temperature for one hour, CellTiterGlo reagent (Promega) was added and luminescence was measured approximately an hour later using a luminometer.
Raw data were converted into percent cell viability relative to the high and low control, which were set to 100% and 0%, respectively.

Compound: Cc1cn([C@H]2C[C@H](O)[C@@](C#N)(CO)O2)c(=O)[nH]c1=O [compound 31]
- IC50 (72 h, 5637, 72 h (Table 9)): > 50 µM
- IC50 (72 h, CLS439, 72 h (Table 9)): > 50 µM
- IC50 (72 h, HS729, 72 h (Table 9)): > 50 µM
- IC50 (72 h, J82, 72 h (Table 9)): 4.88 µM
- IC50 (72 h, JAR, 72 h (Table 9)): > 50 µM
- IC50 (72 h, MT3, 72 h (Table 9)): 3.77 µM
- IC50 (72 h, PC3, 72 h (Table 9)): > 50 µM
- IC50 (72 h, RD, 72 h (Table 9)): > 50 µM
- IC50 (72 h, T24, 72 h (Table 9)): 3.01 µM
- IC50 (Homo sapiens, 22Rv1, 72 h, 22RV1, 72 h (Table 9)): 1.06 µM
- IC50 (Homo sapiens, 786-0, 72 h, 786O, 72 h (Table 9)): > 50 µM
- IC50 (Homo sapiens, A204, 72 h, A204, 72 h (Table 9)): 2.55 µM
- IC50 (Homo sapiens, A549, 72 h, A549, 72 h (Table 9)): > 50 µM
- IC50 (Homo sapiens, A673, 72 h, A673, 72 h (Table 9)): 5.25 µM
- IC50 (Homo sapiens, A2780, 72 h, A2780, 72 h (Table 9)): > 50 µM
- IC50 (Homo sapiens, A-375, 72 h, A375, 72 h (Table 9)): > 50 µM
- IC50 (Homo sapiens, A-431, 72 h, A431, 72 h (Table 9)): 2.6 µM
- IC50 (Homo sapiens, ACHN, 72 h, 72 h (Table 9)): 4.02 µM
- IC50 (Homo sapiens, ASPC1, 72 h, ASPC1, 72 h (Table 9)): > 50 µM
- IC50 (Homo sapiens, BT-20, 72 h, BT20, 72 h (Table 9)): > 50 µM
- IC50 (Homo sapiens, BXPC-3, 72 h, BXPC3, 72 h (Table 9)): 6.34 µM
- IC50 (Homo sapiens, C-33-A, 72 h, C33A, 72 h (Table 9)): 1.75 µM
- IC50 (Homo sapiens, CAKI-1, 72 h, CAKI1, 72 h (Table 9)): > 50 µM
- IC50 (Homo sapiens, COLO 205, 72 h, COLO205, 72 h (Table 9)): > 50 µM
- IC50 (Homo sapiens, COLO-678, 72 h, COLO678, 72 h (Table 9)): > 50 µM
- IC50 (Homo sapiens, Ca-Ski, 72 h, CASKI, 72 h (Table 9)): > 50 µM
- IC50 (Homo sapiens, Caco-2, 72 h, CACO2, 72 h (Table 9)): > 50 µM
- IC50 (Homo sapiens, Calu-6, 72 h, CALU6, 72 h (Table 9)): > 50 µM
- IC50 (Homo sapiens, DLD-1, 72 h, DLD1, 72 h (Table 9)): 4.59 µM
- IC50 (Homo sapiens, DU-145, 72 h, DU145, 72 h (Table 9)): 5.46 µM
- IC50 (Homo sapiens, EFO-21, 72 h, EFO21, 72 h (Table 9)): > 50 µM
- IC50 (Homo sapiens, EJ-28, 72 h, EJ28, 72 h (Table 9)): > 50 µM
- IC50 (Homo sapiens, Granta-519, 72 h, GRANTA-519, 72 h (Table 9)): 3.15 µM
- IC50 (Homo sapiens, HCT-15, 72 h, HCT15, 72 h (Table 9)): > 50 µM
- IC50 (Homo sapiens, HCT-116, 72 h, HCT116, 72 h (Table 9)): > 50 µM
- IC50 (Homo sapiens, HEK293, 72 h, HEK293, 72 h (Table 9)): > 50 µM
- IC50 (Homo sapiens, HL-60, 72 h, HL-60, 72 h (Table 9)): > 50 µM
- IC50 (Homo sapiens, HT-29, 72 h, HT29, 72 h (Table 9)): > 50 µM
- IC50 (Homo sapiens, HT-1080, 72 h, HT1080, 72 h (Table 9)): > 50 µM
- IC50 (Homo sapiens, HeLa, 72 h, 72 h (Table 9)): > 50 µM
- IC50 (Homo sapiens, HepG2, 72 h, HEPG2, 72 h (Table 9)): 5.08 µM
- IC50 (Homo sapiens, Hs-578T, 72 h, HS578T, 72 h (Table 9)): > 50 µM
- IC50 (Homo sapiens, IGROV-1, 72 h, IGROV1, 72 h (Table 9)): > 50 µM
- IC50 (Homo sapiens, IMR-90, 72 h, IMR90, 72 h (Table 9)): > 50 µM
- IC50 (Homo sapiens, JEG-3, 72 h, JEG3, 72 h (Table 9)): > 50 µM
- IC50 (Homo sapiens, JIMT-1, 72 h, JIMT1, 72 h (Table 9)): > 50 µM
- IC50 (Homo sapiens, K562, 72 h, K-562, 72 h (Table 9)): > 50 µM
- IC50 (Homo sapiens, Kasumi 1, 72 h, KASUMI-1, 72 h (Table 9)): > 50 µM
- IC50 (Homo sapiens, L-363, 72 h, L-363, 72 h (Table 9)): > 50 µM
- IC50 (Homo sapiens, LoVo, 72 h, 72 h (Table 9)): 3.55 µM
- IC50 (Homo sapiens, MCF7, 72 h, MCF7, 72 h (Table 9)): > 50 µM
- IC50 (Homo sapiens, MDA-MB-231, 72 h, MDAMB231, 72 h (Table 9)): > 50 µM
- IC50 (Homo sapiens, MDA-MB-435, 72 h, MDAMB435, 72 h (Table 9)): > 50 µM
- IC50 (Homo sapiens, MDA-MB-436, 72 h, MDAMB436, 72 h (Table 9)): 5.24 µM
- IC50 (Homo sapiens, MDA-MB-468, 72 h, MDAMB468, 72 h (Table 9)): > 50 µM
- IC50 (Homo sapiens, MG-63, 72 h, MG63, 72 h (Table 9)): > 50 µM
- IC50 (Homo sapiens, MHH-ES-1, 72 h, MHHES1, 72 h (Table 9)): 3.07 µM
- IC50 (Homo sapiens, MIA PaCa-2, 72 h, MIAPACA2, 72 h (Table 9)): > 50 µM
- IC50 (Homo sapiens, MINO, 72 h, 72 h (Table 9)): 3.91 µM
- IC50 (Homo sapiens, MV4-11, 72 h, MV4-11, 72 h (Table 9)): 0.38 µM
- IC50 (Homo sapiens, NCI-H23, 72 h, NCI-H23, 72 h (Table 9)): 4.05 µM
- IC50 (Homo sapiens, NCI-H82, 72 h, NCIH82, 72 h (Table 9)): 5.25 µM
- IC50 (Homo sapiens, NCI-H292, 72 h, NCIH292, 72 h (Table 9)): > 50 µM
- IC50 (Homo sapiens, NCI-H460, 72 h, NCIH460, 72 h (Table 9)): 2.8 µM
- IC50 (Homo sapiens, OVCAR-3, 72 h, OVCAR3, 72 h (Table 9)): > 50 µM
- IC50 (Homo sapiens, OVCAR-4, 72 h, OVCAR4, 72 h (Table 9)): > 50 µM
- IC50 (Homo sapiens, PANC-1, 72 h, PANC1, 72 h (Table 9)): > 50 µM
- IC50 (Homo sapiens, PLC-PRF-5, 72 h, PLCPRF5, 72 h (Table 9)): 5.05 µM
- IC50 (Homo sapiens, Panc1005, 72 h, PANC1005, 72 h (Table 9)): > 50 µM
- IC50 (Homo sapiens, Ramos, 72 h, 72 h (Table 9)): > 50 µM
- IC50 (Homo sapiens, SAOS-2, 72 h, SAOS2, 72 h (Table 9)): > 50 µM
- IC50 (Homo sapiens, SF-268, 72 h, SF268, 72 h (Table 9)): 14.6 µM
- IC50 (Homo sapiens, SF-295, 72 h, SF295, 72 h (Table 9)): > 50 µM
- IC50 (Homo sapiens, SK-BR-3, 72 h, SKBR3, 72 h (Table 9)): 3.44 µM
- IC50 (Homo sapiens, SK-HEP1, 72 h, SKHEP1, 72 h (Table 9)): 3.15 µM
- IC50 (Homo sapiens, SK-LMS-1, 72 h, SKLMS1, 72 h (Table 9)): 2.88 µM
- IC50 (Homo sapiens, SK-MEL-5, 72 h, SKMEL5, 72 h (Table 9)): > 50 µM
- IC50 (Homo sapiens, SK-MEL-28, 72 h, SKMEL28, 72 h (Table 9)): > 50 µM
- IC50 (Homo sapiens, SK-N-AS, 72 h, SKNAS, 72 h (Table 9)): > 50 µM
- IC50 (Homo sapiens, SK-N-SH, 72 h, SKNSH, 72 h (Table 9)): > 50 µM
- IC50 (Homo sapiens, SK-OV-3, 72 h, SKOV3, 72 h (Table 9)): > 50 µM
- IC50 (Homo sapiens, SNB-75, 72 h, SNB75, 72 h (Table 9)): 4.52 µM
- IC50 (Homo sapiens, SU-DHL10, 72 h, SU-DHL-10, 72 h (Table 9)): > 50 µM
- IC50 (Homo sapiens, SU-DHL-6, 72 h, SU-DHL-6, 72 h (Table 9)): 3.92 µM
- IC50 (Homo sapiens, SW-620, 72 h, SW620, 72 h (Table 9)): > 50 µM
- IC50 (Homo sapiens, TE-671, 72 h, TE671, 72 h (Table 9)): > 50 µM
- IC50 (Homo sapiens, THP-1, 72 h, THP-1, 72 h (Table 9)): 2.49 µM
- IC50 (Homo sapiens, U2OS, 72 h, 72 h (Table 9)): > 50 µM
- IC50 (Homo sapiens, U-87 MG, 72 h, U87MG, 72 h (Table 9)): 5.23 µM
- IC50 (Homo sapiens, UMUC3, 72 h, UMUC3, 72 h (Table 9)): > 50 µM
- IC50 (Homo sapiens, UO-31, 72 h, UO31, 72 h (Table 9)): > 50 µM
- IC50 (Homo sapiens, WSU-NHL, 72 h, 72 h (Table 9)): 4.26 µM
- IC50 (NCI-H358M, 72 h, NCIH358M, 72 h (Table 9)): > 50 µM
- IC50 (PBMC, 72 h, 72 h (Table 9)): > 50 µM
- IC50 (RD-ES, 72 h, RDES, 72 h (Table 9)): 3.65 µM
